Patent publication US20220243177A1, “METHODS OF CULTURING QUIESCENT HEMATOPOIETIC STEM CELLS AND TREATMENT METHODS” (priority 2019, published 2022)

Legend:
Format in all cases: cell-based, mouse
[1] = test system: MMP-low and MMP-high HSCs (LSKCD150+CD48-); test: Single cell division assay; details: for Number of wells with each number of cell division: 0 / Number of wells with each number of cell division: 1 / Number of wells with each number of cell division: Dead / Number of wells with each number of cell division: ≥2: 60 h
Procedure: Single Cell Division Assay: Single cell cultures were carried out as previously described (Bernitz et al., “Hematopoietic Stem Cells Count and Remember Self-Renewal Divisions,” Cell 167(5): 1296-1309 (2016), which is hereby incorporated by reference in its entirety). Single MMP-low and MMP-high HSCs (LSKCD150^+CD48^−) isolated from GFP-transgenic mice were FACS sorted into individual wells of round-bottomed 96-well plates. Single cells were visually confirmed under light microscope and cultured in serum free Stemspan medium. Wells were supplemented with SCF (100 ng/ml) and TPO (20 ng/ml) (both from R&D system), were incubated at 37° C. in a humidified atmosphere with 5% CO2, and the number of cells per well was monitored daily. The final number of cell divisions per well was assessed at the indicated time points in each experiment. Treatments with concanamycin A (“ConA”) (40-100 nM) or DMSO control were added at the start of culture and left in the wells for the duration of the experiment unless otherwise stated. More than 200 cells per condition were analyzed. Cell Cycle Analysis—Pyronin Y staining. Pyronin Y staining was performed as described in Rimmele et al., “Mitochondrial Metabolism in Hematopoietic Stem Cells Requires Functional FOXO3,” EMBO Rep. 16: 1164-1176 (2015) and Yalcin et al., “Foxo3 Is Essential for the Regulation of Ataxia Telangiectasia Mutated and Oxidative Stress-mediated Homeostasis of Hematopoietic Stem Cells,” J. Biol. Chem. 283: 25692-25705 (2008), which are hereby incorporated by reference in their entirety. FACS-purified MMP-low and MMP-high LT-HSCs were stained with Hoechst 33342 ([…]) at 37° C. for 45 minutes, followed by staining with pyronin Y (1 mg/ml) for an additional 15 minutes at 37° C. Cells were then washed in cold PBS, and resuspended in IMDM+2% FBS. Samples were immediately analyzed by flow cytometry.

[2] = test system: MMP-low and MMP-high HSCs; test: Immunofluorescence staining and laser scanning confocal microscopy of treated HSCs; details: ConA 40 nM, 18 hours
Procedure: Immunofluorescence Staining, Imaging, and Analysis—Laser Scanning Confocal Microscopy: FACS purified MMP-low and MMP-high HSCs (in average pooled from three mice) were seeded into retronectin-coated channel slides (Ibidi Cat# 80626) and fixed for 15 minutes with 10% formalin (1,000 cells). After washing with PBS, cells were permeabilized in PBS+0.25% Triton™ X-100 for 15 minutes and blocked for 1 hour in 3% BSA. Fixed and permeabilized cells were then incubated with primary antibodies (1:150) in PBS+1% BSA overnight at 4° C., washed and stained with fluorescence-conjugated secondary antibodies (1:1,000) for 1 hour at room temperature. Slides were sealed with mounting medium with DAPI. Images were captured using a Zeiss LSM880 Airyscan confocal microscope using a 100× objective (N.A. 1.46).
For analysis by immunofluorescence staining, MMP-low and MMP-high HSCs were FACS-purified and incubated in StemSpan medium containing SCF (100 ng/ml) and TPO (20 ng/ml) for the indicated time with the indicated compounds at 37° C. in a humidified atmosphere with 5% CO2. After treatment, cells were processed for confocal imaging as described above.
Fluorescence Intensity: Channel displaying the protein of interest were isolated and quantified on a per cell basis using the raw integrated density metric generated by the measure command. For nuclear intensity, DAPI thresholds were used to delimit the nucleus and mapped back onto the channel displaying the protein of interest to determine fluorescence intensity within the nucleus only.

[3] = test system: MMP-low and MMP-high HSCs; test: Long term culture-initiating cell (LTC-IC) assay
Procedure: Long Term Culture-Initiating Cell (“LTC-IC”) Assay: Long-term cultures were initiated as described in Lemieux et al., “Characterization and Purification of a Primitive Hematopoietic Cell Type in Adult Mouse Marrow Capable of Lymphomyeloid Differentiation in Long-Term Marrow ‘Switch’ Cultures,” Blood 86: 1339-1347 (1995), which is hereby incorporated by reference in its entirety. […] The frequency of long-term culture-initiated cells (“LTC-ICs”) was determined by limiting dilution and applying Poisson distribution statistics as described in Hu & Smyth, “ELDA: Extreme Limiting Dilution Analysis for Comparing Depleted and Enriched Populations in Stem Cell and Other Assays,” J. Immunol. Methods 347: 70-78 (2009), which is hereby incorporated by reference in its entirety.

[4] = aging HSCs, ConA 40 nM, 60-hour
[5] = aging MMP-low and MMP-high HSCs
[6] = aged HSCs, Con A 40 nM, two days

How did the “frequency of non-dividing MMP-high GFP+ HSCs” value ([1]; ConA 40 nM, up to 60 hours) turn out when C/C=C/[C@H]1O[C@@](O)([C@@H](C)[C@H](O)[C@H](C)[C@H]2OC(=O)/C(OC)=C/C(C)=C/[C@@H](C)[C@@H](O)[C@@H](CC)[C@@H](O)[C@H](C)C/C(C)=C/C=C/[C@@H]2OC)C[C@@H](O[C@H]2C[C@@H](O)[C@H](OC(N)=O)[C@@H](C)O2)[C@@H]1C [ConA, concanamycin A] was run?
The value was “significantly increased”.

And the “non-dividing MMP-low HSCs in culture” value ([1]; ConA 40 nM, up to 60 hours)?
The value was “only a slight effect”.

What about the “Number of wells with each number of cell division: 0” value ([1]; MMP High + Con A (40 nM)) of the same molecule?
The value was 23.8 ± 1.33.

And the “Number of wells with each number of cell division: 1” value ([1]; MMP High + Con A (40 nM))?
The value was 8.8 ± 0.84.

And the “Number of wells with each number of cell division: Dead” value ([1]; MMP High + Con A (40 nM))?
Its value is 14.4 ± 0.92.

What about the “Number of wells with each number of cell division: ≥2” value ([1]; MMP High + Con A (40 nM)) of the same molecule?
Its value is 7.4 ± 2.62.

And the “Number of wells with each number of cell division: 0” value ([1]; MMP Low + Con A (40 nM))?
Its value is 35.8 ± 8.89.

And the “Number of wells with each number of cell division: 1” value ([1]; MMP Low + Con A (40 nM))?
Its value is 7.4 ± 1.24.

And the “Number of wells with each number of cell division: Dead” value ([1]; MMP Low + Con A (40 nM))?
Its value is 7 ± 1.51.

What about the “Number of wells with each number of cell division: ≥2” value ([1]; MMP Low + Con A (40 nM)) of the same molecule?
The value was 4.6 ± 1.53.

What about the “cell death of aging HSC in culture” value [1, 4] of the same molecule?
The value was “without any increase in cell death”.

What about the “division of aging HSC in culture” value [1, 4] of the same molecule?
Its value is “divided less than non-treated HSC”.

And the “lysosomal phenotype (LAMP2)” value [2]?
The value was “bloated lysosomal phenotype”.

And the “mTOR co-localization with lysosomes in MMP-high HSCs” value [2]?
Its value is “lost”.

What about the “expression of Ki67 and CDK6” value ([2]; MMP-high HSCs) of the same molecule?
The value was “restored in ConA-treated MMP-high HSCs to the levels of the untreated MMP-low HSCs”.

And the “mTOR signaling (mTOR, RHEB, RAGA/B, p4EBP1) in MMP-high HSCs” value ([2]; almost to levels of rapamycin (40 nM)-treated HSCs)?
Its value is “repression of mTOR signaling”.

And the “mTOR activity in old HSCs” value ([2]; aging HSCs)?
Its value is “reduced/abolished mTOR activity”.

What about the “cycling status (CDK6 staining) of aging HSCs” value [2, 5] of the same molecule?
Its value is “reverted the cycling status”.

What about the “lysosomal content in old HSCs” value [2, 5] of the same molecule?
Its value is “increasing lysosomal content”.

And the “enhanced frequency of LTC-ICs, MMP-high HSCs” value ([3]; ConA 40 nM, 48-hour or 4-day)?
Its value is 2.5 fold.

And the “enhanced frequency of LTC-ICs, MMP-low HSCs” value ([3]; ConA 40 nM, 48-hour or 4-day)?
Its value is 1.5 fold.

What about the “size of LTC-IC-derived colonies” value ([3]; ConA 40 nM, two days) of the same molecule?
The value was “increased size of colonies”.

What about the “LTC-IC-derived colonies from aged HSCs” value [3, 6] of the same molecule?
Its value is “increased the LTC-IC-derived colonies”.

What about the “number of LTC-IC recovered from aged HSC cultures” value [3, 6] of the same molecule?
The value was “improved the number”.
